# Results taken from US9532985B2, “Tetrahydroquinoline derivatives for treating post-traumatic stress disorders” (ACTELION PHARMACEUTICALS LTD., priority 2007, dated 2017).
# Tested on: fear-potentiated acoustic startle response in Fischer F344 rats
# Test: Fear-potentiated startle response in rats
# Type: in vivo, rat
# Source text: The compounds of formula I can be administered to the animal in order to assess their effects on emotional reactivity.
# Signs of decreased emotional reactivity to acoustic stimuli have been discovered in an animal model of fear potentiated acoustic startle. Anxiolytic-like activity—as assessed by decreased acoustic startle reactivity—was observed one hour after treatment with a compound of the formula I compared to vehicle (PEG400) control treatment and to active treatment with diazepam given orally. […] In human medicine, increased acoustic startle reactivity has been observed in patients suffering from PTSD anxiety compared to healthy subjects (Exaggerated acoustic startle reflex in Gulf War veterans with posttraumatic stress disorder, Am. J. Psychiatry (1996), 153(1), 64-68).
# In the fear-potentiated startle procedure in rats, a neutral stimulus such as light is repetitively paired with an aversive stimulus such as mild foot shock. When an animal is presented with loud acoustic stimuli, enhanced startle responses are elicited when the startle stimulus is preceded by the light (a classically conditioned increase in fear). Benzodiazepine anxiolytics attenuate the response enhancement. Startle response was recorded by using auditory startle chambers. […]
Compound,"startle response amplitude (oral 107 mg/kg, one hour after treatment, compared with vehicle (PEG400) group control 1)","startle response amplitude (oral 3 mg/kg, compared with vehicle group control 2)"
"CNC(=O)[C@@H](c1ccccc1)N1CCc2cc(OC)c(OC)cc2[C@@H]1CCc1ccc(C(F)(F)F)cc1.Cl [Compound A, (R)-2-{(S)-6,7-dimethoxy-1-[2-(4-trifluoromethyl-phenyl)-ethyl]-3,4-dihydro-1H-isoquinolin-2-yl}-N-methyl-2-phenyl-acetamide hydrochloride]",reduces in a significant manner the startle response amplitude,–
CN1C(=O)CN=C(c2ccccc2)c2cc(Cl)ccc21 [diazepam],–,reduces in a significant manner the startle response amplitude
